Laboratory results reported in US20110064662A1, “KIT FOR PRODUCING MOLECULAR PROBE FOR PET SCREENING FOR DRUG DISCOVERY” (RIKEN, priority 2007, published 2011).

Key:
[1] = PET analysis of the brain of the monkey after intravenous injection of labeled compound; assay type: in vivo; settings: for stability against metabolism: concluded from monkey brain PET images; for initial brain uptake for 10 minutes after administration / elimination from the brain: monkey; for initial brain uptake for 10 minutes after administration: i.v. about 900 MBq, PET of brain, compared with conventional labeled compound
Experimental: The N-(2,5-dimethoxybenzyl)-N-[5-fluoro(4-[^11-C]methylphenoxy)-phenyl]acetamide ([^11C]-9) (^11C-labeled compound) produced in Example 9 was diluted with a mixed solution of physiological saline (3.6 ml), propylene glycol (0.3 ml), ethanol (0.1 ml), and a Tween 80 surfactant (0.1 ml), a radioactivity of about 900 MBq was introduced into a monkey through an intravenous injection, and a PET analysis of the brain of the monkey was performed using an animal PET scanner SHR-7700 manufactured by Hamamatsu Photonics K.K. ([^11C]-20).
[^11C]DAA1106 represented by the formula below was administered into a monkey in the same manner as in Example 10 except that [^11C]DAA1106 was used in place of the N-(2,5-dimethoxybenzyl)-N-[5-fluoro(4-[^11C]methylphenoxy)phenyl]acetamide ([^11C]-9) (labeled compound) produced in Example 9. The time radioactivity curves thereof are shown also in FIG. 3. […] [^11C]DAA1106 was separately produced according to WO 99/06353.
The 1-(2-chloro-5-methylphenyl)-N-methyl-(1-methylpropyl)-3-isoquinolinecarboxamide ([^11C]-20) (^11C-labeled compound) produced in Example 11 was diluted with a mixed solution of physiological saline (3.6 ml), propylene glycol (0.3 ml), ethanol (0.1 ml), and a Tween 80 surfactant (0.1 ml), a radioactivity of about 900 MBq was introduced into a monkey through an intravenous injection, and a PET analysis of [^11C]-20 in the brain of the monkey was performed using an animal PET scanner SHR-7700 manufactured by Hamamatsu Photonics K.K. The results are shown in FIG. 2.
[^11C]PK11195 represented by the formula below was administered into a monkey in the same manner as in Example 12 except that [^11C]PK11195 was used in place of the 1-(2-chloro-5-methylphenyl)-N-methyl-(1-methylpropyl)-3-isoquinolinecarbox amide ([^11C]-20) (labeled compound) produced in Example 11. […] [^11C]PK11195 was separately produced according to R. Camsonne et al., Journal of Labeled Compounds and Radiopharmaceuticals, 1984, 11, pp. 985-991.
The 10-O-p-[^11C]methylbenzylginkgolide B ([^11C]-29) (^11C-labeled compound) produced in Example 16 was diluted with a mixed solution of physiological saline (1.8 ml), propylene glycol (0.15 ml), ethanol (0.05 ml), a Tween 80 surfactant (0.05 ml), and intralipos (2.05 ml), a radioactivity of about 900 MBq was introduced into a monkey through an intravenous injection, and a PET analysis of [^11C]-29 in the brain of the monkey was performed using an animal PET scanner SHR-7700 manufactured by Hamamatsu Photonics K.K. The results are shown in FIG. 8.
[^18F]-30 represented by the formula below was administered into a monkey in the same manner as in Example 17 except that [^18F]-30 was used in place of the 10-O-p-[^11C]-methylbenzylginkgolide B ([^11C]-29) (^11C-labeled compound) produced in Example 16. […] [^18F]-30 was separately produced according to Makiko Suehiro, et al., J. Labelled Compd. Radiopharm., 47, pp. 485-491, 2004.

P-glycoprotein = assay: Experiment for determining P-glycoprotein substrates (brain radioactivity in rats with or without cyclosporin A pre-administration); assay type: in vivo; settings: for amount of tracer present in the brain upon pre-administration of CsA: CsA in different doses 30 min before tracer, brain removed 30 min after tracer
Experimental: P-glycoprotein inhibitor cyclosporin A (CsA) was administered into rats 30 minutes prior to the administration of tracers. Thirty minutes after the administration of tracers, the rats were decapitated to remove the brains and measure the radioactivity. […] An SUV value in the present experiment is the average of the results obtained from 4 rats and expressed using a standard deviation.

[2] = Proportion of brain SUV to blood SUV in rats, with and without brain blood perfusion; assay type: in vivo; settings: for uptake by the parenchyma of the brain: concluded from pre- and post-perfusion data; for amount of tracer after the brain blood perfusion: physiological saline perfused via the heart before decapitation
Experimental: As in Example 18, P-glycoprotein inhibitor cyclosporin A (CsA) was administered into rats in an amount of 25 mg/kg body weight of a rat 30 minutes prior to the administration of tracers. Thirty minutes after the administration of tracers, the rats were decapitated to remove the brains and measure the radioactivity. The figures show the results obtained from control rats into which no CsA was administered and from those into which CsA was administered in an amount of 25 mg/kg, expressed as a proportion of the brain SUV to the blood SUV. The SUV value in the present experiment is the average of the results obtained from two rats and expressed using a standard deviation. 10-O-p-[^11C]methylbenzylginkgolide B ([^11C]-29) (^11C-labeled compound) produced in Example 16 and [^18F]-30 were used as the tracers. […] FIG. 11 is from the measurement of radioactivity in the brain removed after decapitation, and FIG. 12 is from the measurement of radioactivity performed after flushing the blood out of the brain by infusing/perfusing physiological saline into the heart of a rat before decapitation.

PAF receptor = PAF receptor (Homo sapiens, UniProt P25105); settings: more strongly than natural ginkgolide B; cited from earlier work
[3] = time radioactivity curves after i.v. administration

PAF receptor, sequence (P25105 whole entry): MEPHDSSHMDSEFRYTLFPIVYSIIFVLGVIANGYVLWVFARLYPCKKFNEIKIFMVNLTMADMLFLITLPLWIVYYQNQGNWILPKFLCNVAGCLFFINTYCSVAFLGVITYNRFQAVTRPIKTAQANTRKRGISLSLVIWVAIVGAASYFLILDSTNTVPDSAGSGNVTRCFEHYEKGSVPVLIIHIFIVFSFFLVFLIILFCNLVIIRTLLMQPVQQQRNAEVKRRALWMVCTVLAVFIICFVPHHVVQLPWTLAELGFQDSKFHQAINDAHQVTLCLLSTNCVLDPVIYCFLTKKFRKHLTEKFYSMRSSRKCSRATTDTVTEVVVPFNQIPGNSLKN

Row | Compound | stability against metabolism [1] | initial brain uptake for 10 minutes after administration [1] | elimination from the brain [1, 3] | brain uptake ([1]; monkey brain PET) | further results
1 | 10-O-p-[^11C]methylbenzylginkgolide B [[^11C]-29] | stable against metabolism | increased initial brain uptake | promptly eliminated from the brain with time |  | amount of tracer present in the brain upon pre-administration of CsA (P-glycoprotein): changed in a volume-dependent manner; SUV values relative to those of [^11C]verapamil (P-glycoprotein; brain SUV, [^11C]verapamil as standard reference): about 30%; uptake by the parenchyma of the brain [2]: taken up by the parenchyma of the brain; amount of tracer after the brain blood perfusion ([2]; control and CsA 25 mg/kg): did not change
2 | COc1ccc(OC)c(CN(C(C)=O)c2cc(F)ccc2Oc2ccc([11CH3])cc2)c1 [[^11C]-9, N-(2,5-dimethoxybenzyl)-N-[5-fluoro-(4[^11C]methylphenoxy)phenyl]acetamide] | stable against metabolism | greater initial brain uptake |  | greater than that of the conventional labeled compound | 
3 | CCC(C)N(C)C(=O)c1cc2ccccc2c(-c2cc([11CH3])ccc2Cl)n1 (centres unmarked) [[^11C]-20, 1-(2-chloro-5-[^11C]methylphenyl)-N-methyl-(1-methylpropyl)-3-isoquinolinecarboxamide] | stable against metabolism | greater initial brain uptake | promptly eliminated from the brain with time | greater than that of the conventional labeled compound | 
4 | COc1ccc(O[11CH3])c(CN(C(C)=O)c2cc(F)ccc2Oc2ccccc2)c1 [[^11C]DAA1106, reference compound] |  |  |  |  | elimination from the brain ([1]; in vivo, iv): barely eliminated from the brain
5 | CCC(C)N([11CH3])C(=O)c1cc2ccccc2c(-c2ccccc2Cl)n1 (centres unmarked) [[^11C]PK11195, reference compound] |  |  | barely eliminated from the brain |  | 
6 | C[C@@H]1C(=O)O[C@H]2[C@H](O)C34C5OC(=O)[C@@]3(OC3OC(=O)C(O)C34[C@H](C(C)(C)C)[C@@H]5[18F])[C@@]12O (some centres unmarked) [[^18F]-30, reference compound] |  |  |  | barely taken up by the brain | blood-brain barrier penetration ([1]; monkey brain PET): little blood-brain barrier penetration; amount of tracer present in the brain upon pre-administration of CsA (P-glycoprotein): did not change; proportion of the brain SUV to the blood SUV ([2]; 30 min after tracer, control and CsA 25 mg/kg): ≤ 0.04; uptake by the parenchyma of the brain [2]: not taken up by the parenchyma of the brain; amount of tracer after the brain blood perfusion ([2]; control and CsA 25 mg/kg): washed away by the brain blood perfusion
7 | Cc1ccc(COC2C(=O)OC3O[C@@]45C(=O)OC6C[C@@H](C(C)(C)C)C32C64[C@@H](O)[C@@H]2OC(=O)[C@@H](C)[C@@]25O)cc1 (some centres unmarked) [compound 29, 10-O-p-methylbenzylginkgolide B] |  |  |  |  | binding with a PAF receptor relative to natural ginkgolide B (PAF receptor): 10 times
